Assay results taken from the supplement of paper PMC10307832.

Experiments:
Experiment in all cases: relative viability (nuclei count vs DMSO), 5 days (fraction); higher = more cells survive
GW-2580 + AZD7762 = compound: COC1=CC=C(C=C1)COC2=C(C=C(C=C2)CC3=CN=C(N=C3N)N)OC [GW-2580] + NC(=O)Nc1cc(-c2cccc(F)c2)sc1C(=O)N[C@H]1CCCNC1 [AZD7762] (partner 0.2 µM)
Summary of the method: (§1)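 Relative viability is defined as nuclei in treated wells over nuclei in vehicle wells. Duplicate plates were run and medians reported. Lung cancer cell lines in 1536-well plates were dosed by pin tool one day after seeding, with one drug or with a fixed anchor-drug dose plus five library-drug doses (not always all listed) in √10 steps, and nuclei were counted after 5 days.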

GW-2580 + OSI-027 = compound: COC1=CC=C(C=C1)COC2=C(C=C(C=C2)CC3=CN=C(N=C3N)N)OC [GW-2580] + COc1cccc2cc(-c3nc([C@H]4CC[C@H](C(=O)O)CC4)n4ncnc(N)c34)[nH]c12 [OSI-027] (partner 0.5 µM)
Summary of the method: as §1

GW-2580 + Navitoclax = compound: COC1=CC=C(C=C1)COC2=C(C=C(C=C2)CC3=CN=C(N=C3N)N)OC [GW-2580] + CC1(C)CCC(c2ccc(Cl)cc2)=C(CN2CCN(c3ccc(C(=O)NS(=O)(=O)c4ccc(N[C@H](CCN5CCOCC5)CSc5ccccc5)c(S(=O)(=O)C(F)(F)F)c4)cc3)CC2)C1 [Navitoclax] (partner 0.5 µM)
Summary of the method: as §1

Fedratinib + Foretinib = compound: Cc1cnc(Nc2ccc(OCCN3CCCC3)cc2)nc1Nc1cccc(S(=O)(=O)NC(C)(C)C)c1 [Fedratinib] + COc1cc2c(Oc3ccc(NC(=O)C4(C(=O)Nc5ccc(F)cc5)CC4)cc3F)ccnc2cc1OCCCN1CCOCC1 [Foretinib] (partner 0.25 µM)
Summary of the method: as §1

Cell Line | relative viability (GW-2580 + AZD7762; first compound 0.08 µM) | relative viability (GW-2580 + AZD7762; first compound 2.53 µM) | relative viability (GW-2580 + AZD7762; first compound 8 µM) | relative viability (GW-2580 + OSI-027; first compound 0.08 µM) | relative viability (GW-2580 + OSI-027; first compound 8 µM) | relative viability (GW-2580 + Navitoclax; first compound 0.08 µM) | relative viability (GW-2580 + Navitoclax; first compound 0.8 µM) | relative viability (GW-2580 + Navitoclax; first compound 2.53 µM) | relative viability (GW-2580 + Navitoclax; first compound 8 µM) | relative viability (Fedratinib + Foretinib; first compound 0.1 µM) | relative viability (Fedratinib + Foretinib; first compound 0.3162 µM) | relative viability (Fedratinib + Foretinib; first compound 1 µM) | relative viability (GW-2580 + OSI-027; first compound 0.8 µM) | relative viability (GW-2580 + OSI-027; first compound 2.53 µM) | relative viability (GW-2580 + AZD7762; first compound 0.8 µM)
NCI-H1648 | 0.713 | 0.778 | 0.583 | 0.27 | 0.231 |  |  |  |  |  |  |  |  |  | 
SK-MES-1 |  |  |  | 0.625 | 0.379 | 1.4 | 1.18 | 1.1 | 1.33 | 0.865 | 1.07 | 0.795 | 0.723 | 0.592 | 
HCC-366 | 0.359 | 0.27 | 0.142 | 0.944 | 0.818 | 1.27 | 1.17 | 1.13 | 1.11 | 0.918 | 0.922 | 0.911 | 1.13 | 0.894 | 0.317
201T | 0.575 | 0.583 | 0.627 | 0.647 | 0.797 | 1.24 | 1.25 | 1.23 | 1.2 | 1.1 | 1.08 | 0.895 | 0.994 | 1.09 | 0.579
HCC-827 | 0.207 | 0.201 | 0.214 | 0.848 | 0.687 | 1.06 | 0.952 | 0.898 | 0.92 | 1.03 | 1.07 | 0.96 | 0.906 | 0.278 | 0.244
NCI-H647 | 0.567 | 0.326 | 0.405 | 0.68 | 0.745 | 1.09 | 1.19 | 1.18 | 1.3 | 1.16 | 1.23 | 1.16 | 0.612 | 0.646 | 0.621
NCI-H2023 |  |  |  | 0.512 | 0.393 | 0.914 | 1.06 | 0.973 | 1.01 | 0.8 | 0.873 | 0.643 | 0.459 | 0.39 | 
NCI-H520 |  |  |  | 0.276 | 0.272 | 1.18 | 1.3 | 1.45 | 1.25 | 0.797 | 0.736 | 0.726 | 0.316 | 0.241 | 
RERF-LC-KJ | 1.11 | 0.825 | 0.913 | 0.584 | 0.484 | 0.871 | 1.04 | 1.13 | 0.995 | 0.883 | 0.904 | 0.864 | 0.606 | 0.501 | 1.25
A-427 | 0.753 | 0.568 | 0.627 | 0.453 | 0.435 | 1.02 | 1.1 | 0.838 | 0.856 | 1.04 | 1 | 1.05 | 0.371 | 0.518 | 0.668
NCI-H441 | 1.13 | 1.06 | 1.08 | 0.653 | 0.77 | 1.03 | 0.33 | 0.575 | 0.515 | 1.12 | 0.907 | 0.868 | 0.634 | 0.586 | 1.26
NCI-H1703 | 0.115 | 0.122 | 0.108 |  |  | 1.11 | 1.15 | 1.1 | 1.06 | 0.317 | 0.296 | 0.324 |  |  | 0.128
NCI-H1792 | 0.681 | 0.63 | 0.697 | 0.763 | 0.883 | 0.534 | 0.816 | 0.26 | 0.668 |  |  |  | 1.14 |  | 0.712
Calu-6 |  |  |  |  |  | 0.932 | 0.868 | 0.782 | 0.877 | 0.855 | 0.857 | 0.784 |  |  | 
SK-LU-1 |  |  |  | 0.366 | 0.348 | 0.869 | 0.85 | 1.06 | 1.05 | 0.819 | 0.78 | 0.504 | 0.347 | 0.321 | 
PC-3 [JPC-3] | 0.732 | 0.897 | 0.781 | 0.75 | 0.724 | 0.807 | 0.854 | 0.72 | 0.779 | 0.982 | 1.08 | 1.06 | 0.985 | 0.721 | 1.09
EMC-BAC-2 | 1.15 |  | 1.01 | 0.364 | 0.337 | 1.18 | 1.39 | 1.07 | 1.2 | 1 | 1.01 | 1 | 0.384 | 0.364 | 1.33
LK-2 | 0.44 | 0.269 | 0.284 | 0.208 | 0.189 | 0.983 | 1.09 | 0.616 | 1.03 | 1.1 | 1.14 | 1.14 | 0.19 | 0.208 | 0.681
NCI-H2126 | 1.06 | 0.942 | 1.03 | 0.697 | 0.716 | 0.915 | 0.875 | 0.808 | 0.921 | 1.07 | 1.06 | 1.08 | 0.793 | 0.706 | 1.02
NCI-H3122 | 1.01 | 1.06 | 1 | 1.28 | 0.895 | 1.04 | 1.06 | 1.13 | 0.892 | 0.956 | 0.9 | 0.941 | 1.24 | 1.19 | 1.02
NCI-H1975 | 0.829 | 0.598 | 0.815 | 0.952 | 0.58 | 1.2 | 1.3 | 1.21 | 0.98 | 1.09 | 0.947 | 0.746 | 0.829 | 0.709 | 0.805
NCI-H1944 | 0.572 | 0.485 | 0.452 | 0.463 | 0.365 | 1.09 | 1.1 | 1.03 | 0.988 | 0.837 | 0.962 | 0.824 | 0.46 | 0.439 | 0.498
LU99A | 0.509 | 0.267 | 0.281 | 0.294 | 0.34 | 0.887 | 0.97 | 0.681 | 0.729 | 0.717 | 0.858 | 0.644 | 0.263 | 0.306 | 0.315
SW 1573 |  |  |  | 0.809 | 0.577 | 1 | 1.04 | 0.869 | 0.929 | 0.906 | 0.947 | 0.807 | 0.626 | 0.666 | 
